These results are taken from US5770617A, “Terbenzimidazoles useful as antifungal agents” (Rutgers, The State University of New Jersey, priority 1997, dated 1998).

“Also recorded” adds a separate entry of the source.

Series [1] deals with T1, calf thymus topoisomerase I (Bos taurus, UniProt F1MN93).
T1 construct: DNA topoisomerase I was purified from calf thymus gland as reported previously; from tissue; host or cells: calf thymus gland
T1 sequence (F1MN93 1-767): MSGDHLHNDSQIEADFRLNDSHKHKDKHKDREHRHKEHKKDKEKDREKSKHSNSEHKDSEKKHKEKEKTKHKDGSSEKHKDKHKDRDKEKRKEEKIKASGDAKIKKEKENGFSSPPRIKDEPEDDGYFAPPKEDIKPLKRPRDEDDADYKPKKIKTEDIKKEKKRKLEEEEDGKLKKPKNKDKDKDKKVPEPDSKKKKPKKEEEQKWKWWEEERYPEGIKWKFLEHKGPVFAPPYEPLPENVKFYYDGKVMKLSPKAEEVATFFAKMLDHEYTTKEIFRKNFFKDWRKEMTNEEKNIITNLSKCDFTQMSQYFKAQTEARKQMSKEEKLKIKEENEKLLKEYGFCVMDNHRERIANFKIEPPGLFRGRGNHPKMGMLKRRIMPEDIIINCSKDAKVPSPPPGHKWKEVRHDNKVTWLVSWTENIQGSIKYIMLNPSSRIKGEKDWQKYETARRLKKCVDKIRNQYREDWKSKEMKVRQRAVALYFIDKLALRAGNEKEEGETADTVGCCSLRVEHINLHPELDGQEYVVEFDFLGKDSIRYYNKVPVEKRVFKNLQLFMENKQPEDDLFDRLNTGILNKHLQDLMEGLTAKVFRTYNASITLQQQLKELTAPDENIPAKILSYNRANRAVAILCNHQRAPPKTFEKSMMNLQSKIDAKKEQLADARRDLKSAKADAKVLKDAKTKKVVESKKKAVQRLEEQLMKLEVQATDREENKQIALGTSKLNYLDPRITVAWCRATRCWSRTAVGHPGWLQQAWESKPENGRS
In words: Topoisomerase I-mediated DNA cleavage assay (calf thymus enzyme). The format is biochemical. To be noted: for Topo I-mediated DNA cleavage (REC, Relative Effective Concentration): concentration relative to Hoechst 33342 (arbitrarily 1) producing the same cleavage on plasmid DNA, calf thymus topoisomerase I. From the text:
A. Topoisomerase I-Mediated DNA Cleavage Assays
DNA topoisomerase I was purified from calf thymus gland as reported previously by B. D. Halligan et al., J. Biol. Chem., 260, 2475 (1985).
Plasmid YEpG was also purified by the alkali lysis method followed by phenol deproteination and CsCl/ethidium isopycnic centrifugation as described by T. Maniatis et al., Molecular Cloning, A Laboratory Manual, Cold Spring Harbor Labs, N.Y. (1982) at pages 149-185. The end-labeling of the plasmid was accomplished as previously described by L. F. Liu et al., J. Biol. Chem., 258, 15365 (1983). The cleavage assays were performed as previously reported by A. Y. Chen et al., Cancer Res., 53, 1332 (1993). Human topoisomerase I was isolated as a recombinant fusion protein using a T7 expression system.

The test system of series [2] is human lymphoblast RPMI 8402. In words: MTT cytotoxicity assay, RPMI 8402. It counts as cell-based. Here is the method:
The cytotoxicity was determined using the as MTT-microtiter plate tetrazolinium cytotoxicity assay (MTA) following the procedures of F. Denizot et al., J. Immunol. Methods, 89, 271 (1986); J. Carmichael et al., Cancer Res, 47, 936 (1987) and T. J. Mosmann et al., Immunol. Methods, 65, 55 (1983). The human lymphoblast RPMI 8402 and its camptothecin-resistant variant cell line, CPT-K5 were provided by Dr. Toshiwo Andoh (Aichi Cancer Center Research Institute, Nagoya, Japan). See, for example, T. Andoh et al., Adv. Pharmacol., 29B, 93 (1994). The cytotoxicity assay was performed using 96-well microtiter plates. Cells were grown in suspension at 37 ° C. in 5% CO2 and maintained by regular passage in RPMI medium supplemented with 10% heat inactivated fetal bovine serum, L-glutamine (2 mM), penicillin (100 U/ml), and streptomycin (0.1 mg/ml). For determination of IC50, cells were exposed continuously with varying concentrations of drug concentrations and MTT assays were performed at the end of the fourth day.

Series [3] addresses T2, mammalian DNA topoisomerase I (Homo sapiens, UniProt P11387).
T2 sequence (P11387 1-765): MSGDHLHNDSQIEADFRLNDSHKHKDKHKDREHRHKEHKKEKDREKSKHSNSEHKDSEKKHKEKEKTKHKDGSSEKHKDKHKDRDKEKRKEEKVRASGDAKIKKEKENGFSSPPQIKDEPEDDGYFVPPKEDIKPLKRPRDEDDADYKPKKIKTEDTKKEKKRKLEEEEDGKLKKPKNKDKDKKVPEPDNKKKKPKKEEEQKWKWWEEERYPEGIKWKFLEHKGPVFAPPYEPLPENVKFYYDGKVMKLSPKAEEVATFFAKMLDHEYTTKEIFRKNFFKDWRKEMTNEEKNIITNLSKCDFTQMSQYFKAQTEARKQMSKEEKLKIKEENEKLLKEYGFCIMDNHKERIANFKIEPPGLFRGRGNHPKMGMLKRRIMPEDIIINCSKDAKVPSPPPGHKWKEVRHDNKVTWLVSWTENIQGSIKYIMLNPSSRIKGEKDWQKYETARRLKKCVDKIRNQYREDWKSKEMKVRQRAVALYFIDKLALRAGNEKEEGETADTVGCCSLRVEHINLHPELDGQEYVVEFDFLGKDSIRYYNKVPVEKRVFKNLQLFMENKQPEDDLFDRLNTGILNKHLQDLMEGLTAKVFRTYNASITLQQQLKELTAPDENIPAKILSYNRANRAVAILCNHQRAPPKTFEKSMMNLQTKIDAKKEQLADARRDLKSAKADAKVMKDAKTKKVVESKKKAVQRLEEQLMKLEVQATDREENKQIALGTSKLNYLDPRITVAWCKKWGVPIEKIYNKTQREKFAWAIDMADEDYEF
The settings on record: cited from earlier work.

In series [4] the target is T3, Aspergillus topoisomerase I (Aspergillus nidulans, UniProt Q5BGS7).
T3 construct: about 105 kDa by phosphate transfer
T3 sequence (Q5BGS7 1-871): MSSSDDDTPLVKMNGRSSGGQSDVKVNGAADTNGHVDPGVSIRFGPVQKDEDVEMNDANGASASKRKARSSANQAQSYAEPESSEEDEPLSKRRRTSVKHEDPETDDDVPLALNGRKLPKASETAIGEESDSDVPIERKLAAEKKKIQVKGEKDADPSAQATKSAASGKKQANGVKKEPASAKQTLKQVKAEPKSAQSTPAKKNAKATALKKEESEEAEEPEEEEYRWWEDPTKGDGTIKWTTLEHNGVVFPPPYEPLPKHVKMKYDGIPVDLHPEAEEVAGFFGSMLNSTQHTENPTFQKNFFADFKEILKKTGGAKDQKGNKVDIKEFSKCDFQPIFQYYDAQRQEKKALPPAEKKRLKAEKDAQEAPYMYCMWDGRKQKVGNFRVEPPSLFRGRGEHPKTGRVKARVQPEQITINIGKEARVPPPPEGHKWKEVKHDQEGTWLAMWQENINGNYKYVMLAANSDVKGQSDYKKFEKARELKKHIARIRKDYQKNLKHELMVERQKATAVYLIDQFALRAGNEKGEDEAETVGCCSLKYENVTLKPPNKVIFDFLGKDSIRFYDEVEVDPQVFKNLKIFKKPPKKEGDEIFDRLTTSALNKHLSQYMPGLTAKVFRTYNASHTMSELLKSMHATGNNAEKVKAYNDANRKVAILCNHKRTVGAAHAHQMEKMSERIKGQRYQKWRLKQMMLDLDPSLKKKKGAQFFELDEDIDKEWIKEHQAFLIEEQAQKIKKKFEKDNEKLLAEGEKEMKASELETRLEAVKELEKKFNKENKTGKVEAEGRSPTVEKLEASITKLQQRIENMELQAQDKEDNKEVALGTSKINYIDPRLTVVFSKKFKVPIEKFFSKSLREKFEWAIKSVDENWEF
The series is described as follows: Topoisomerase I cleavage assay, Aspergillus enzyme. It counts as biochemical. To be noted: DNA cleavage assay. On the procedure: Two liters of YG medium (0.5% yeast extract and 2% glucose) were inoculated with approximately 5×10^8 conidia/ml. After 16 hours of growth at 37° C., the mycelia were collected, washed with Buffer I (50 mM Tris-HCl, pH 7.7, 1 mM EDTA, 1 mM EGTA, 10% glycerol, 1 mM phenylmethylsulfonyl fluoride and 1 mM 2-mercaptoethanol), and quickly chilled in liquid nitrogen. The frozen mycelia (approximately 20 grams) were ground to powder and resuspended in 300 ml of Buffer I. The lysate was centrifuged at 10K rpm in a Sorval HB3 Rotor for 15 minutes to remove cell debris. The supernatant was made 6% in polyethylene glycol (v/v) and 1M NaCl. After one hour on ice with gentle stirring, the solution was centrifuged at 14K rpm in a Sorvall Rotor for 30 minutes to remove nucleic acids.
Subsequent steps in purification were the same as described previously for purification of recombinant human DNA topoisomerase I (B. Gatto et al., Cancer Res., 56, 2795 (1996)). Briefly, the supernatant was chromatographed directly onto a hydroxyapatite Bio-gel HTP (BioRad Laboratories, Richmond, Calif.) column. Fractions containing relaxation activity were pooled, diluted and then loaded onto a BioRex70 column (BioRad Laboratories, Richmond, Calif.). The column was developed with a linear gradient from 0.2 to 1M KCl. The peak fractions were pooled and dialyzed overnight at 4° C. against 30 mM potassium phosphate, 50% glycerol (v/v), 0.5 mM EDTA, and 1 mM DTT. Recombinant human topoisomerase I was purified from Escherichia coli BL21 (DE3) harboring PET1B as described previously (Gatto et al., Cancer Res., 56, 2795 (1996)).
DNA topoisomerase I cleavage assays were performed as described by Y.-H. Hsiang et al., J. Biol. Chem., 260, 14873 (1985). YEpG DNA was linearized with BamHI and then 3 '-end-labeled with Klenow polymerase and α[-^32 P]dCTP. Following phenol extraction and ethanol precipitation, the labeled DNA was resuspended in 10 mM Tris, pH 8.0, and 1 mM EDTA. The DNA cleavage assay was done in a reaction mixture (20 μl) containing 40 mM Tris-HCl, pH 7.8, 100 mM KCl, 10 mM MgCl2, 0.5 mM dithiothreitol, 0.5 mM EDTA, 30 μg/ml bovine serum albumin, 20 ng of labeled YEpG DNA, and […] of Aspergillus or human topoisomerase I diluted to various extents. Following incubation at 23° C. for 15 minutes, the reactions were terminated by the addition of SDS (final concentration 1%) and proteinase K (final concentration 200 μg/ml). Proteinase K treatment continued at 37° C. for another 1 hour. The terminated reactions were either alkali-denatured and then loaded (alkaline loading) or loaded directedly in neutral loading buffer (neutral loading) onto a 1% agarose gel in neutral TPE electrophoresis solution. Gel drying and autoradiography were performed as described by Hsiang et al., cited above.

In series [5] the target is T4, human topoisomerase I (Homo sapiens, UniProt P11387).
T4 construct: made in house; host or cells: Escherichia coli BL21 (DE3) harboring PET1B
T4 sequence (P11387 1-765): T2 sequence (P11387 1-765)
To be noted: cited from earlier work.

Series [6] relates to yeast cells expressing yeast topoisomerase I. The series is described as follows: Yeast cytotoxicity assay, yeast topoisomerase I. It counts as cell-based, S. cerevisiae. From the text:
(§1) The topoisomerase I-specific in vivo cytotoxicity assay was adapted from A. M. Knab et al., J. Biol. Chem., 268, 22322 (1993). In this system, various topoisomerase I genes or cDNAs cloned into the single-copy yeast plasmid vector (YCpGAL1; Knab et al., cited above) are expressed under the control of the GAL1 promoter in the JN2-134 strain of S. cerevisiae (MAT, rad52::Leu2, trp1, ade2-1, his7, ura3-52, ise1, top1-1, and leu2; M. A. Bjornsti et al., Cancer Res., 49, 6318 (1989)). The topoisomerase I gene or cDNA constructs in the vector are, respectively, the wild-type yeast topoisomerase I gene (YCpGAL-ScTOP1; need cite (1989)), a nonfunctional topoisomerase I gene where the active site tyrosine-727 is mutated to phenylalanine (YCPGAL1-Sctop1Y727; A. M. Knab et al., J. Biol. Chem., 268, 22322 (1993)), and the wild-type human topoisomerase I cDNA (YCp-GAL-hTOP1; M. A. Bjornsti et al., Cancer Res., 49, 6318 (1989)).
(§2) To qualitatively test the cytotoxicity and the topoisomerase I specificity of the drugs, yeast cells containing the specified plasmid were grown in dropout medium supplemented with uracil, 2% galactose, and the drug being tested.

Series [7] has as its system yeast cells expressing human topoisomerase I. In words: Yeast cytotoxicity assay, human topoisomerase I. It counts as cell-based, S. cerevisiae.
Source text: as §1, §2

Series [8] deals with yeast cells expressing nonfunctional yeast topoisomerase I. In words: Yeast cytotoxicity assay, nonfunctional yeast topoisomerase I. The format is cell-based, S. cerevisiae.
Source text: as §1, §2

In the case of `CCCc1ccc2[nH]c(-c3ccc4[nH]c(-c5ccc6[nH]cnc6c5)nc4c3)nc2c1` [Compound 12, 5-Propyl-2-[2'-(benzimidazol-5"-yl)benzimidazol-5'-yl]benzimidazole], in series [1], the “potency as topoisomerase I inhibitor compared with Hoechst 33342, in words” value is on record as “much less active” and the “Topo I-mediated DNA cleavage (REC, Relative Effective Concentration)” value is listed as 100. For the same compound, in series [2], the “cytotoxicity towards RPMI 8402, in words” value is “weak cytotoxicity”.

As to `Brc1ccc2[nH]c(-c3ccc4[nH]c(-c5ccc6[nH]cnc6c5)nc4c3)nc2c1` [JSKIV-37, 5-Bromo-2-[2'-(benzimidazol-5"-yl)benzimidazol-5'-yl]-benzimidazole], the “Topo I-mediated DNA cleavage (REC, Relative Effective Concentration)” value in series [1] came out at 1. The IC50 in series [2] (Homo sapiens, RPMI 8402, 96 h, read-out: Cytotoxicity IC50 RPMI) was determined as 1400 nM.

As for `O=[N+]([O-])c1ccc2nc(-c3ccc(O)cc3)[nH]c2c1` [QS/II/51], the “inhibition (poisoning) of mammalian DNA topoisomerase I, previous studies” value in series [3] is recorded as “inhibitors (poisons)”. In addition, the “inhibition (poisoning) of Aspergillus topoisomerase I, in words” value in series [4] is “None of the mono-benzimidazoles, including QS/II/50, QS/II/51, QS/II/59A, an QS/II/9, exhibited any inhibitory effect”.

For the compound `COc1cc2c[n+](C)c3c4cc5c(cc4ccc3c2cc1OC)OCO5` [nitidine], the “inhibition of human topoisomerase I, in words (known / previously disclosed)” value in series [5] is given as “highly potent inhibitors”. In addition, the “cytotoxicity to yeast cells expressing functional yeast topoisomerase I” value in series [6] is “not cytotoxic”. In addition, the “inhibition (poisoning) of Aspergillus topoisomerase I, in words” value in series [4] is on record as “completely resistant; also recorded: did not inhibit Aspergillus topoisomerase I to any significant extent”. In addition, in series [7], the “cytotoxicity to yeast cells expressing human topoisomerase I” value was “highly cytotoxic”. Besides, in series [8], the “cytotoxicity to yeast cells expressing nonfunctional yeast topoisomerase I” value is recorded as “not cytotoxic”.

What is called IC50 is the concentration that gives 50% inhibition.
